Assay results from US7365160B2, “Mutated constitutively active nuclear orphan receptor” (The United States of America as represented by the …, priority 2002, dated 2008).

Key:
[1] = system: chimeric receptors hmm and hhm; assay: luciferase reporter assay in HepG2 cells, chimeric receptors with mouse LBD; type: cell-based, mouse/human; settings: chimeras hmm and hhm repressed by KN-62
[2] = system: mCAR T176V / T176L; assay: luciferase reporter gene activation assay (PBREM) in HepG2 cells, mCAR Thr176 mutants; settings: T176V or T176L; did not require exogenous SRC-1
[3] = target: T1, mCAR L352A (Mus musculus, UniProt O35627, L352A); assay: luciferase reporter gene activation assay (PBREM) in HepG2 cells, mCAR L352A mutant; type: cell-based; settings: only in the presence of exogenous SRC-1
T1 construct: mCAR and hCAR expression vectors were constructed by cloning an entire mCAR; expressed in transfected cells; host or cells: HepG2
T1 sequence (O35627 1-358 L352A): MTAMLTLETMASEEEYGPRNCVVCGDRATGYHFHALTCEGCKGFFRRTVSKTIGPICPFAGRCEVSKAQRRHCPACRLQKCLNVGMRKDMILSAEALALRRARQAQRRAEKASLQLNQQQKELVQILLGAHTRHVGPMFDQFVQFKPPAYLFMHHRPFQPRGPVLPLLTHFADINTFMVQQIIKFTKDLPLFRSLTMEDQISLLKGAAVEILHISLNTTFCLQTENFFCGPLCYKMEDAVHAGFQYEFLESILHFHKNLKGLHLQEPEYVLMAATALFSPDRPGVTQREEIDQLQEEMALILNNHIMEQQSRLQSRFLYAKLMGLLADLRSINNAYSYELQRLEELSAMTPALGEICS
Description: To examine the role of Leu352 in mCAR activity, site-directed mutagenesis was used as described in EXAMPLES 2 and 6.

**Q.** For `Clc1cnc(Oc2ccc(Oc3ncc(Cl)cc3Cl)cc2)c(Cl)c1` [TCPOBOP, 1,4-bis [2-(3,5-dichloropyridyloxy)]benzene], which “re-activation of KN-62-repressed chimeric receptors” value [1] is on record?
**A.** re-activated

**Q.** And the “activation of mutated mCAR” value [2]?
**A.** effectively activated

**Q.** What about the “activation of L352A mutant” value [3] of the same compound?
**A.** activated
